Test results taken from patent publication US12473295B2, “Substituted straight chain spiro derivatives” (Janssen Pharmaceutica NV, priority 2019, dated 2025).
Where a name gives a salt, the structure may show the parent alone.

Columns and labels:
iCell Cardiomyocytes2 = assay: Ca2+-fluorescence assay in human pluripotent stem cell-derived cardiomyocytes (CTCM human), iCell Cardiomyocytes2; type: cell-based; parameters: key: Green: No concern; Yellow: Low concern; Red: High concern; Black: Very high concern due to arrhythmic events; settings: 30 min; for Color @ 0.1 μM (hazard score): iCell Cardiomyocytes2, 0.1 μM; for Color @ 1 μM (hazard score): iCell Cardiomyocytes2, 1 μM
Method: (§1) 7) Cardio-Electrophysiological Effects of the Testing Compounds in Synchronously Beating Human Pluripotent Stem Cell-Derived Cardiomyocytes (hSC-CMs) Using a Ca^2+-Fluorescence Assay (CTCM Human)
(§2) Compounds were tested in the 96-well plates
Compounds were tested at 0.1 μM, 0.2 μM, 0.5 μM, 1 μM, 2.5 μM and 5 μM (n=4 per dose) on Cor.4U 9-Cardiomyocytes or on iCell® Cardiomyocytes2
Alternatively, compounds were tested at 0.1 μM, 0.3 μM; 1 μM, 3 μM, 10 μM and 30 μM (n=4 per dose) mostly on iCell® Cardiomyocytes2
(§3) Dimethylsulfoxide (DMSO). The solutions of the compound in DMSO or its solvent (final concentration of 0.1% DMSO; n=8)
(§4) Preparation of Test Article and Controls
(§5) Tested compounds were dissolved in DMSO at 1000-fold the intended concentrations. A compound “mother-plate” was made, containing the test compounds and positive and negative controls at 1000-fold the final concentrations. At the experiment day, these stock solutions were diluted with Tyrode (Sigma), supplemented with 10 mM HEPES (Gibco), to 2-fold the intended concentration (in round bottom compound plates). Final DMSO concentration in test solutions and vehicle control was 0.1%.
Second line hSC derived cardiomyocyte called iCell®, Cardiomyocytes2 were purchased from FUJIFILM Cellular Dynamics (USA). The experiments with test drugs are carried out 5 to 7 days after plating the cells onto the plate to have a living, beating monolayer of hiPSC-derived cardiomyocytes. The beating monolayer in 96-well-plates are normally taken from 2 Vials of frozen iCell) Cardiomyocytes2 (≈5 million cells/vial), which will be plated onto […] 96-well plates (≈50K/well).
(§6) Before Start of Experiment
(§7) At least one hour before the start of the experiments the normal cell medium was replaced with Tyrode solution with Calcium dye (see below).
(§8) Cal 520 dye (AAT Bioquest) was dissolved in 11 ml of Tyrode supplemented with 10 mM HEPES and warmed up to 37° C. before adding to the cells.
(§9) 35 μl cell culture medium was removed from each well and replaced with 35 μl of pre-warmed Cal 520 dye solution and cell plate was incubated for 45 min at 37° C./5% CO2. Cells were incubated for 5 min at 37° C.
(§10) Spontaneous electrical activity is recorded, using Cal520™ (AAT Bioquest) calcium fluorescence-dye signaling. This dye integrates the total intracellular calcium activity over the whole well. A bottle of Cal520 dye (50 μg, MW: 1103/mol) is dissolved with 50 μl DMSO as a stock solution of 0.9 mM. 50 μL of the stock solution of the dye was added to 10 ml Tryodes solution to have dye concentration of 4.5 μM. Subsequently, 35 μl of this dye solution was added into each well, to have a final dye concentration of 1.58 μM. The current dye protocol on this CTCM human assay was established recently (Ivan Kopljar et al, Journal of Pharmacological and toxicological methods 2018. 91: 80-86; Lu et al., Tox Sci 2019. 170 (2): 345-356).
(§11) Fluorescent signals (Ca^2+ transient morphology) were measured using the Functional Drug Screen System (FDSS/μCell; Hamamatsu, Japan) and the recordings were subsequently analyzed off-line, using appropriate software e.g. Notocord.
(§12) The cell plate was loaded into the FDSS/μCell for a test run: Ca^2+ transients were measured for 4 minutes to check for synchronous beating of the cardiomyocytes in each well. All 96 wells were measured simultaneously (sampling interval: 0.06 s, short exposure time: 10 ms; excitation wavelength 480 nm; emission wavelength 540 nm; FDSS/μCell warmed to 37° C.).
(§13) During the compound addition step, 100 μl of the respective double-concentrated test solutions was pipetted into each well simultaneously.
(§14) Data were analyzed off-line using appropriate software e.g. Notocord-Hem (version 4.3).
The following parameters of the Ca^2′ transient morphology were measured: • beat rate (BR) • amplitude of the Ca^2+ transient (Amp), • CTD90: Ca^2+ transient duration at 90% (time to 90% of the initial base value). […]

[1] = biological target: hERG potassium channel (IKr) (Homo sapiens (Human), UniProt Q12809); assay: Effect on membrane potassium current IKr in hERG transfected CHO cells, Protocol 1 (QPatch); type: cell-based; settings: human, CHO cells stably expressing the hERG potassium channel, pH 7.4
Outline: (§15)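 Whole-cell automated patch clamp on CHO cells stably expressing hERG, held at −80 mV; the value is the tail current at −40 mV after a 2 s step to +60 mV, at pH 7.4 bath and pH 7.2 pipette. After 0.3% DMSO control, compound was applied at 3×10^−7 M, 3×10^−6 M, 10^−5 M and 3×10^−5 M, 5 min each. IC50 comes from a non-linear least-squares fit of block versus vehicle.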

MOLM14 cells = assay: Proliferation assay (spheroid growth, 8 days), MOLM14; type: cell-based, human; settings: MOLM14, 8 days; hydrochloride; read-out: spheroid assay_OneTime MOLM14 IC50;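 note: spheroid size read as confluence by live-cell imaging, compounds added at a range of concentrations with 0.3% DMSO, DMSO-treated wells = 0%, highest reference dose = low control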
OCI-AML3 cells = assay: Proliferation assay (spheroid growth, 8 days), OCI-AML3; type: cell-based, human; settings: OCI-AML3, 8 days, hydrochloride
Outline: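 8-day spheroid growth in ultra-low attachment plates; seeding 200 cells (MOLM14, OCI-AML3) or 300 (KO-52); DMSO 0.3%. Day-8 imaging, confluence vs DMSO (0%) and top reference dose (baseline); IC50 by variable-slope fit.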

Cor.4U Cardiomyocytes = assay: Ca2+-fluorescence assay in human pluripotent stem cell-derived cardiomyocytes (CTCM human), Cor.4U Cardiomyocytes; type: cell-based; parameters: key: Green: No concern; Yellow: Low concern; Red: High concern; Black: Very high concern due to arrhythmic events; settings: 30 min
Method: as §1, §2
Compounds were tested at 0.1 μM, 0.2 μM, 0.5 μM, 1 μM, 2.5 μM and 5 μM (n=4 per dose) on Cor.4U 9-Cardiomyocytes or on iCell® Cardiomyocytes2 […]
as §3, §4, §5
hSC-CMs (Cor.4U® Cardiomyocytes) were obtained from CDI (Ncardia, Germany). Cells are pre-plated and seeded in fibronectin-coated 96-well plates at a density suited to form a monolayer and maintained in culture in a stage incubator (37° C., 5% CO2), according to the instructions of the cell provider.
as §6, §7, §8, §9, §10, §11, §12, §13, §14
The following parameters of the Ca^2′ transient morphology were measured: • beat rate (BR) • amplitude of the Ca^2+ transient (Amp), • CTD90: Ca^2+ transient duration at 90% (time to 90% of the initial base value).
The presence of various ‘arrhythmia-like’ activities were also noted during the experimental periods. […]

hERG potassium channel = hERG potassium channel (Homo sapiens (Human), UniProt Q12809); assay: Effect on membrane potassium current IKr in hERG transfected CHO cells, Protocol 1 (QPatch); type: cell-based
Outline: as §15

OCI-AML3 tumors = assay: Efficacy study in disseminated OCI-AML3 model (survival); type: in vivo, mouse; settings: disseminated OCI-AML3, SCID beige mice, vehicle 38.5 days

hERG potassium channel (IKr), sequence (Q12809 whole entry): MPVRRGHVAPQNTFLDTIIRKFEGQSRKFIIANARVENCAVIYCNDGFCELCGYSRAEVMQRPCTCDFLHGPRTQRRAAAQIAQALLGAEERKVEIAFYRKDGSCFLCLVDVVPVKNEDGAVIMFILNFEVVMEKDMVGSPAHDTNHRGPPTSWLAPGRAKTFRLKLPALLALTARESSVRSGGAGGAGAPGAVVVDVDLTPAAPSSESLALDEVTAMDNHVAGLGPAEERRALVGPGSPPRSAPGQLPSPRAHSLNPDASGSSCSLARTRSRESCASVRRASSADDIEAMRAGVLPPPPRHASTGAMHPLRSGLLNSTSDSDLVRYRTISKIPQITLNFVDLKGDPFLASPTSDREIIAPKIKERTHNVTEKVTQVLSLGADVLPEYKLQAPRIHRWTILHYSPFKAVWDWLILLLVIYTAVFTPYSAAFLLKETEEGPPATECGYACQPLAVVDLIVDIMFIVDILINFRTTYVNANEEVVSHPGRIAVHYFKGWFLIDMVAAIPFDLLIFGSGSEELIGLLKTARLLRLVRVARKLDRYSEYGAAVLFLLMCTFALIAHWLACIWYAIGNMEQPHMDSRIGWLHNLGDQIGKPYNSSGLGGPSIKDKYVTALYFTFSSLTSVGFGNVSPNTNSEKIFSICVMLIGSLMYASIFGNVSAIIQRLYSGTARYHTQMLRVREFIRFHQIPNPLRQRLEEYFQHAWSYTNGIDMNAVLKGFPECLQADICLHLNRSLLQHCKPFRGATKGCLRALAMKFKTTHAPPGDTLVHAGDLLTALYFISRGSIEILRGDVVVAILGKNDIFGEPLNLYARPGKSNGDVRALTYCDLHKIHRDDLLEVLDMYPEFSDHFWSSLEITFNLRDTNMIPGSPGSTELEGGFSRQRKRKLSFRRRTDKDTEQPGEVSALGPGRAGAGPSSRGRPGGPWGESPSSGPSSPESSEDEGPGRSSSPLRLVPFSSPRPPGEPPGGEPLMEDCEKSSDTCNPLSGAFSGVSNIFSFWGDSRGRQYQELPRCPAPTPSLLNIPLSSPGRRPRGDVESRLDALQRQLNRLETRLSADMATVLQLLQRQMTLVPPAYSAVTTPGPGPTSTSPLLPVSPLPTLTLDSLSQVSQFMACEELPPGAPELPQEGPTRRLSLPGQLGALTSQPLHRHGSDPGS
hERG potassium channel, sequence (Q12809 whole entry): as above

SMILES: CCN(C(=O)c1cc(F)ccc1Oc1nncnc1N1CCC2(C1)CN([C@H](CCCNCCOC)C(C)C)C2)C(C)C [Compound 11, (R)-N-ethyl-5-fluoro-N-isopropyl-2-((5-(2-(6-((2-methoxyethyl)amino)-2-methylhexan-3-yl)-2,6-diazaspiro[3.4]octan-6-yl)-1,2,4-triazin-6-yl)oxy)benzamide]
- Color @ 0.1 μM (hazard score) (iCell Cardiomyocytes2; range 0.1-30 μM): Green
- Color @ 0.3 μM (hazard score) (iCell Cardiomyocytes2; iCell Cardiomyocytes2, 0.3 μM): Green
- Color @ 1 μM (hazard score) (iCell Cardiomyocytes2; range 0.1-30 μM): Green
- Color @ 3 μM (hazard score) (iCell Cardiomyocytes2; iCell Cardiomyocytes2, 3 μM): Green
- Color @ 10 μM (hazard score) (iCell Cardiomyocytes2; iCell Cardiomyocytes2, 10 μM): Green
- Color @ 30 μM (hazard score) (iCell Cardiomyocytes2; iCell Cardiomyocytes2, 30 μM): Green
- IC50 at 5 min [1]: > 30.2 µM

SMILES: CCN(C(=O)c1cc(F)ccc1Oc1nncnc1N1CCC2(C1)CN([C@H](CCCNC)C(C)C)C2)C(C)C [Compound 19, (R)-N-ethyl-5-fluoro-N-isopropyl-2-((5-(2-(2-methyl-6-(methylamino)hexan-3-yl)-2,6-diazaspiro[3.4]octan-6-yl)-1,2,4-triazin-6-yl)oxy)benzamide hydrochloride]
- IC50 (MOLM14 cells): 0.058 µM
- IC50 (OCI-AML3 cells): 0.16 µM
- Color @ 0.1 μM (hazard score) (Cor.4U Cardiomyocytes; 0.1 μM): Green
- Color @ 0.2 μM (hazard score) (Cor.4U Cardiomyocytes; 0.2 μM): Green
- Color @ 0.5 μM (hazard score) (Cor.4U Cardiomyocytes; 0.5 μM): Green
- Color @ 1 μM (hazard score) (Cor.4U Cardiomyocytes; 1 μM): Green
- Color @ 2.5 μM (hazard score) (Cor.4U Cardiomyocytes; 2.5 μM): Green
- Color @ 5 μM (hazard score) (Cor.4U Cardiomyocytes; 5 μM): Green
- IC50 (hERG potassium channel): > 30.2 µM

SMILES: CCN(C(=O)c1cc(F)ccc1Oc1nncnc1N1CCC2(C1)CN([C@H](CCCN(C)CCOC)C(C)C)C2)C(C)C [Compound 70, (R)-N-ethyl-5-fluoro-N-isopropyl-2-((5-(2-(6-((2-methoxyethyl)(methyl)amino)-2-methylhexan-3-yl)-2,6-diazaspiro[3.4]octan-6-yl)-1,2,4-triazin-6-yl)oxy)benzamide oxalate]
- Color @ 0.1 μM (hazard score) (iCell Cardiomyocytes2): Green
- Color @ 0.2 μM (hazard score) (iCell Cardiomyocytes2; iCell Cardiomyocytes2, 0.2 μM): Green
- Color @ 0.5 μM (hazard score) (iCell Cardiomyocytes2; iCell Cardiomyocytes2, 0.5 μM): Green
- Color @ 1 μM (hazard score) (iCell Cardiomyocytes2): Green
- Color @ 2.5 μM (hazard score) (iCell Cardiomyocytes2; iCell Cardiomyocytes2, 2.5 μM): Green
- Color @ 5 μM (hazard score) (iCell Cardiomyocytes2; iCell Cardiomyocytes2, 5 μM): Green
- median days of survival (OCI-AML3 tumors; 30 mg/kg PO daily for 28 days): 75.5 days
- median days of survival (OCI-AML3 tumors; 50 mg/kg PO daily for 28 days): 58.5 days
